Our source for the IC50 values is patent publication US11214565B2, “Compound, compositions, and methods” (Denali Therapeutics Inc., priority 2015, dated 2022).

LRRK2 G2019S enzyme, sequence (Q5S007 whole entry G2019S): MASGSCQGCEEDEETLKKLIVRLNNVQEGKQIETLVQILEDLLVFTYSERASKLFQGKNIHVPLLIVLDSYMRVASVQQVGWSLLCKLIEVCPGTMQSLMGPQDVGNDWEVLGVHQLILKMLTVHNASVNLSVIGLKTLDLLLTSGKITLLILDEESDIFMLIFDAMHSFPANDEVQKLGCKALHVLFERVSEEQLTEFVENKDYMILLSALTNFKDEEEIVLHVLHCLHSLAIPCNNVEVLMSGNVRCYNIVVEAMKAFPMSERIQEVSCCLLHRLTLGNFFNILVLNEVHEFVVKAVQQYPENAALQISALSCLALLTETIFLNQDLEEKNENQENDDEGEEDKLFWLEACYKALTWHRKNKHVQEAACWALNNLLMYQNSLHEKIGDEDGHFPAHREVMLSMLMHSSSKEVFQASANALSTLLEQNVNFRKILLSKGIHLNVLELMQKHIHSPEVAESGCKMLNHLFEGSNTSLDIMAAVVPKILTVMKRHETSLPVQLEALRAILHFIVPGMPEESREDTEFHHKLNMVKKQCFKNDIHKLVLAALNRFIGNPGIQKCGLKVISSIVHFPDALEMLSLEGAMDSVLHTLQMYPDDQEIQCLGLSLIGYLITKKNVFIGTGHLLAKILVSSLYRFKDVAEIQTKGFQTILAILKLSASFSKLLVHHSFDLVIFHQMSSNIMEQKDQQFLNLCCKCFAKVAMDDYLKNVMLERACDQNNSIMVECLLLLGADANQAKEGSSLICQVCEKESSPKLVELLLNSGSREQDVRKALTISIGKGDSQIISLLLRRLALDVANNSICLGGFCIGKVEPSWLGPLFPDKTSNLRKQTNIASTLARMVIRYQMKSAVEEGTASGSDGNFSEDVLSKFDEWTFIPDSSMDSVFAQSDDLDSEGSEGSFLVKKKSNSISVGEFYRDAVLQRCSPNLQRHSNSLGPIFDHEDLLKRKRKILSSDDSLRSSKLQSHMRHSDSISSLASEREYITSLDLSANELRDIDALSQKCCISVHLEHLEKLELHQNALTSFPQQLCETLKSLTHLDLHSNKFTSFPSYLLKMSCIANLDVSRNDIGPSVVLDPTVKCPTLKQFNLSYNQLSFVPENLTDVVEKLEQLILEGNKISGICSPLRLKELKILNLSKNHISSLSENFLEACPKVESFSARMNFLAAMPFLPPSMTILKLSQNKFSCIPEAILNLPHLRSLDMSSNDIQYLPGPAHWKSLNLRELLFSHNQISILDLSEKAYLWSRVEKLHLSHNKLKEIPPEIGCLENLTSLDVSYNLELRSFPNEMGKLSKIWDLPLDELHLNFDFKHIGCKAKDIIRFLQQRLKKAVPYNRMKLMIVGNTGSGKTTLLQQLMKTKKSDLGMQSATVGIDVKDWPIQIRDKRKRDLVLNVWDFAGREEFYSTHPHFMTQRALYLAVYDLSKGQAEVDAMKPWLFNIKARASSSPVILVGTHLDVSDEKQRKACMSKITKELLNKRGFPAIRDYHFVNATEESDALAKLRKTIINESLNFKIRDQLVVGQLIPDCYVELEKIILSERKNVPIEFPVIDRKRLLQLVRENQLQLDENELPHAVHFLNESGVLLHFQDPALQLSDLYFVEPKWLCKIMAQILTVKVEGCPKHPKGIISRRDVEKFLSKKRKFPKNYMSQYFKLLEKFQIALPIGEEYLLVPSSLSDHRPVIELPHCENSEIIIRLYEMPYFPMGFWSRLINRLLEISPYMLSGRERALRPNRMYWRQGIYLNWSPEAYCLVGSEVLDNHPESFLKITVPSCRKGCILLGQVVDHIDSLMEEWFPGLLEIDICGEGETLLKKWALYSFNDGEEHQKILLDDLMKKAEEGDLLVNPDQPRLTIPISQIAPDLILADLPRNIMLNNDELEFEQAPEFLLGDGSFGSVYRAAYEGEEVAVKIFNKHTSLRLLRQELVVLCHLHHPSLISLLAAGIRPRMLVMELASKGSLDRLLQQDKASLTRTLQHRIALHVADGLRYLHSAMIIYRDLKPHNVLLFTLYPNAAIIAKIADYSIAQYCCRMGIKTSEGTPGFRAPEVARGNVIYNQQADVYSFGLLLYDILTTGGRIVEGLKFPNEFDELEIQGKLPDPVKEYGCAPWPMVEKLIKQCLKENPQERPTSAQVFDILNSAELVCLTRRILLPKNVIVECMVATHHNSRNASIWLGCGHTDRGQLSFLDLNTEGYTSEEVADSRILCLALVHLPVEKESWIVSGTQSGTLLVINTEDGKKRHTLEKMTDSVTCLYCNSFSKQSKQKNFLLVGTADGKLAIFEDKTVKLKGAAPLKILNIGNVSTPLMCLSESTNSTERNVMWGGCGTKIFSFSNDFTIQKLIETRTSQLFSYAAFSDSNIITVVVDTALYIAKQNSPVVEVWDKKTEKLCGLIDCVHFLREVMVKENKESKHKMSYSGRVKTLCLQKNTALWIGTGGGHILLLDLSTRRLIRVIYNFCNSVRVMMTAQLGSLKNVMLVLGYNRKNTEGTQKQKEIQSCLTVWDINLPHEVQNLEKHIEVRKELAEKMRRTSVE

The first assay concerns the target LRRK2 G2019S enzyme (Homo sapiens (Human), UniProt Q5S007, G2019S). Put plainly: LRRK2 G2019S TR-FRET biochemical kinase assay (LRRKtide substrate). The note with it: Table A-2; 5 nM LRRK2, 134 μM ATP, 60 minute reaction, 23° C. The method, boiled down: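 5 nM LRRK2 G2019S preincubated 20 min with LRRKtide and compound (3.162-fold dilution series) in Tris pH 7.5, MgCl2, EGTA, Brij-35, DTT, then reacted 60 min at 23 °C with 134 μM ATP. EDTA-stopped; pLRRKtide antibody detection, TR-FRET read at 340 nm excitation, 520/490–495 nm emission.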
(Time-resolved FRET reads energy transfer from a long-lived donor to a nearby acceptor.)
As usually defined, the IC50 is the concentration needed to halve the response being measured. Compound `Cc1nn(C(F)(F)C(N)=O)cc1Nc1ncc(C(F)(F)F)c(C2CC2)n1` [Compound A-87] gave an IC50 of under 30 nM. Still for that read-out and setting: under `Cc1c(Nc2ncc(C(F)(F)F)c(C3CC3)n2)cnn1C1(C)CCNC1=O` (stereo not drawn) [Compound A-93] stands under 30 nM.

Still in this assay, the particulars now being: Table B-2; 5 nM LRRK2, 134 μM ATP, 60 minute reaction, 23° C.
`CNc1nc(Nc2cnn(C)c2C)nc2[nH]cc(Cl)c12` [Compound B-1, 5-chloro-N^2-(1,5-dimethylpyrazol-4-yl)-N4-methyl-7H-pyrrolo[2,3-d]pyrimidine-2,4-diamine] had an IC50 of 1 to 2 nM.

`CCNc1nc(Nc2cn(C(C)(C)C#N)nc2C)nc2[nH]cc(Cl)c12` [Compound B-2, 2-[4-[[5-chloro-4-(ethylamino)-7H-pyrrolo[2,3-d]pyrimidin-2-yl]amino]-3-methyl-pyrazol-1-yl]-2-methyl-propanenitrile] came in with an IC50 of at most 1 nM. `CCOc1nc(Nc2cn(C(C)(C)C#N)nc2C)nc2[nH]cc(Cl)c12` [Compound B-3, 2-[4-[[5-chloro-4-ethoxy-7H-pyrrolo[2,3-d]pyrimidin-2-yl]amino]-3-methyl-pyrazol-1-yl]-2-methyl-propanenitrile]: the IC50 was at most 1 nM. Take `CNc1nc(Nc2cn(C)nc2C)nc2[nH]cc(Cl)c12` [Compound B-4, 5-chloro-N^2-(1,3-dimethyl-1H-pyrazol-4-yl)-N^4-methyl-7H-pyrrolo[2,3-d]pyrimidine-2,4-diamine]: the IC50 was 2 to 20 nM. As to `COc1nc(Nc2cn(C(C)(C)C#N)nc2C)nc2[nH]cc(Cl)c12` [Compound B-5, 2-[4-[(5-chloro-4-methoxy-7H-pyrrolo[2,3-d]pyrimidin-2-yl)amino]-3-methyl-pyrazol-1-yl]-2-methyl-propanenitrile], the IC50 was 1 to 2 nM. `CNc1nc(Nc2cn(C(C)(C)C#N)nc2C)nc2[nH]cc(Cl)c12` [Compound B-6, 2-[4-[[5-Chloro-4-(methylamino)-7H-pyrrolo[2,3-d]pyrimidin-2-yl]amino]-3-methyl-pyrazol-1-yl]-2-methyl-propanenitrile]: the IC50 was at most 1 nM. `COc1nc(Nc2cn(C(C)(C)C#N)nc2C)nc2[nH]cnc12` [Compound B-7, 2-(4-((6-methoxy-9H-purin-2-yl)amino)-3-methyl-1H-pyrazol-1-yl)-2-methylpropanenitrile] showed an IC50 of 2 to 20 nM.

`COc1nc(Nc2cnn(C)c2C)nc2[nH]cc(Cl)c12` [Compound B-8, 5-chloro-N-(1,5-dimethylpyrazol-4-yl)-4-methoxy-7H-pyrrolo[2,3-d]pyrimidin-2-amine]: the IC50 fell in the range of 1 to 2 nM.

As for `COc1nc(Nc2cn(C)nc2C)nc2[nH]cc(Cl)c12` [Compound B-9, 5-chloro-N-(1,3-dimethylpyrazol-4-yl)-4-methoxy-7H-pyrrolo[2,3-d]pyrimidin-2-amine], the IC50 was in the range of 2 to 20 nM. The same measure, in the same setting: under `CNc1nc(Nc2cn(C(C)(C)C#N)nc2C)nc2[nH]cc(F)c12` [Compound B-10, 2-(4-((5-fluoro-4-(methylamino)-7H-pyrrolo[2,3-d]pyrimidin-2-yl)amino)-3-methyl-1H-pyrazol-1-yl)-2-methylpropanenitrile] stands 1 to 2 nM.

Regarding `COc1nc(Nc2cn(C(C)(C)C#N)nc2C)nc2[nH]cc(F)c12` [Compound B-11, 2-[4-[(5-fluoro-4-methoxy-7H-pyrrolo[2,3-d]pyrimidin-2-yl)amino]-3-methyl-pyrazol-1-yl]-2-methyl-propanenitrile], the IC50 lay within 1 to 2 nM. The compound `CCOc1nc(Nc2cn(C(C)(C)C#N)nc2C)nc2[nH]cnc12` [Compound B-12, 2-[4-[(6-ethoxy-9H-purin-2-yl)amino]-3-methyl-pyrazol-1-yl]-2-methyl-propanenitrile] came in with an IC50 of 2 to 20 nM.

The compound `COc1nc(Nc2cn(C(C)(C)C#N)nc2C)nc2[nH]cc(C3CC3)c12` [Compound B-13, 2-[4-[(5-cyclopropyl-4-methoxy-7H-pyrrolo[2,3-d]pyrimidin-2-yl)amino]-3-methyl-pyrazol-1-yl]-2-methyl-propanenitrile] yielded an IC50 of 2 to 20 nM. Compound `COc1nc(Nc2cn(C(C)(C)C#N)nc2C)nc2[nH]cc(C(F)(F)F)c12` [Compound B-14, 2-(4-((4-methoxy-5-(trifluoromethyl)-7H-pyrrolo[2,3-d]pyrimidin-2-yl)amino)-3-methyl-1H-pyrazol-1-yl)-2-methylpropanenitrile] came in with an IC50 of 2 to 20 nM.

The same assay, now with this note: Table C-2; 5 nM LRRK2, 134 μM ATP, 60 minute reaction, 23° C.
On to `Cc1nn(C(CF)CF)cc1Nc1nc(C2CC2)c2nc[nH]c2n1` [Compound C-1, 6-cyclopropyl-N-[1-[2-fluoro-1-(fluoromethyl)ethyl]-3-methyl-pyrazol-4-yl]-9H-purin-2-amine], for which the IC50 was under 50 nM. Still for that read-out and setting: the figure for `Cc1c(Nc2nc(C3CC3)c3nc[nH]c3n2)cnn1C(CF)CF` [Compound C-2, 6-cyclopropyl-N-(1-(1,3-difluoropropan-2-yl)-5-methyl-1H-pyrazol-4-yl)-9H-purin-2-amine] is under 50 nM.

Compound `Cc1c(Nc2nc(C3CC3)c3nc[nH]c3n2)cnn1C(F)F` [Compound C-4, 6-cyclopropyl-N-(1-(difluoromethyl)-5-methyl-1H-pyrazol-4-yl)-9H-purin-2-amine] came in with an IC50 of under 50 nM. On the same count and under the same terms, the figure for `Cc1c(Nc2nc(C3CC3)c3nc[nH]c3n2)cnn1C` [Compound C-5, 6-cyclopropyl-N-(1,5-dimethylpyrazol-4-yl)-9H-purin-2-amine] is under 50 nM; for `Cc1nn(C)cc1Nc1nc(C2CC2)c2nc[nH]c2n1` [Compound C-6, 6-cyclopropyl-N-(1,3-dimethylpyrazol-4-yl)-9H-purin-2-amine] it is under 50 nM. Turning to `Cc1c(Nc2nc(C3CC3)c3nc[nH]c3n2)cnn1CC1CC1` [Compound C-7, 6-cyclopropyl-N-(1-(cyclopropylmethyl)-5-methyl-1H-pyrazol-4-yl)-9H-purin-2-amine], the IC50 is under 50 nM. In turn, `c1nc2c(C3CC3)nc(Nc3cnn4c3CC3(CC3)C4)nc2[nH]1` [Compound C-8, N-(6-cyclopropyl-9H-purin-2-yl)spiro[4,6-dihydropyrrolo[1,2-b]pyrazole-5,1 cyclopropane]-3-amine] displayed an IC50 of under 50 nM. As to `Cc1nn(C(C)(C)C#N)cc1Nc1nc(C2CC2)c2nc[nH]c2n1` [Compound C-9, 2-(4-((6-cyclopropyl-9H-purin-2-yl)amino)-3-methyl-1H-pyrazol-1-yl)-2-methylpropanenitrile], the IC50 was under 50 nM. As for `Cc1nn(C(C)(C)C#N)cc1Nc1nc(C2CC2)c2c(C#N)c[nH]c2n1` [Compound C-10, 2-[[1-(1-cyano-1-methyl-ethyl)-3-methyl-pyrazol-4-yl]amino]-4-cyclopropyl-7H-pyrrolo[2,3-d]pyrimidine-5-carbonitrile], the IC50 is under 50 nM. On the same count and under the same terms, the figure for `Cc1c(Nc2nc(C3CC3)c3c(C#N)c[nH]c3n2)cnn1C(CF)CF` [Compound C-11, 4-cyclopropyl-2-[[1-[2-fluoro-1-(fluoromethyl)ethyl]-5-methyl-pyrazol-4-yl]amino]-7H-pyrrolo[2,3-d]pyrimidine-5-carbonitrile] is under 50 nM. The same measure, in the same setting: under `Cc1nn(C(CF)CF)cc1Nc1nc(C2CC2)c2c(C#N)c[nH]c2n1` [Compound C-12, 4-cyclopropyl-2-[[1-[2-fluoro-1-(fluoromethyl)ethyl]-3-methyl-pyrazol-4-yl]amino]-7H-pyrrolo[2,3-d]pyrimidine-5-carbonitrile] stands under 50 nM; under `N#Cc1c[nH]c2nc(Nc3cnn4c3CC3(CC3)C4)nc(C3CC3)c12` [Compound C-13, 4-cyclopropyl-2-(spiro[4,6-dihydropyrrolo[1,2-b]pyrazole-5,1′-cyclopropane]-3-ylamino)-7H-pyrrolo[2,3-d]pyrimidine-5-carbonitrile], under 50 nM. The same measure, in the same setting: the figure for `Cc1nn(C(C)(C)C#N)cc1Nc1nc(C2CC2)c2c(F)c[nH]c2n1` [Compound C-14, 2-[4-[(4-cyclopropyl-5-fluoro-7H-pyrrolo[2,3-d]pyrimidin-2-yl)amino]-3-methyl-pyrazol-1-yl]-2-methyl-propanenitrile] is under 50 nM; for `Cn1ccc(Nc2cc(C3CC3)c3nc[nH]c3n2)n1` [Compound C-17, 7-cyclopropyl-N-(1-methyl-1H-pyrazol-3-yl)-3H-imidazo[4,5-b]pyridin-5-amine] it is over 100 nM. `Cc1c(Nc2nc(C3CC3)c3c(C#N)c[nH]c3n2)cnn1C` [Compound C-18, 4-cyclopropyl-2-[(1,5-dimethylpyrazol-4-yl)amino]-7H-pyrrolo[2,3-d]pyrimidine-5-carbonitrile] had an IC50 of under 50 nM. `Cc1nn(C)cc1Nc1nc(C2CC2)c2c(C#N)c[nH]c2n1` [Compound C-19, 4-cyclopropyl-2-[(1,3-dimethylpyrazol-4-yl)amino]-7H-pyrrolo[2,3-d]pyrimidine-5-carbonitrile]: the IC50 was under 50 nM. In turn, `Cc1cn(C)nc1Nc1cc(C2CC2)c2c(C#N)c[nH]c2n1` [Compound C-20, 4-cyclopropyl-6-((1,4-dimethyl-1H-pyrazol-3-yl)amino)-1H-pyrrolo[2,3-b]pyridine-3-carbonitrile] returned an IC50 of under 50 nM. Take `Cn1ccc(Nc2cc(C3CC3)c3c(C#N)c[nH]c3n2)n1` [Compound C-21, 4-cyclopropyl-6-((1-methyl-1H-pyrazol-3-yl)amino)-1H-pyrrolo[2,3-b]pyridine-3-carbonitrile]: the IC50 is under 50 nM. In turn, `Cc1nn(C(C)(C)C#N)cc1Nc1nc(C2CC2)c2c(Cl)c[nH]c2n1` [Compound C-22] had an IC50 of under 50 nM. `Cc1nn(C(C)(C)C#N)cc1Nc1nc(C2CC2)c2cc[nH]c2n1` [Compound C-23] gave an IC50 of under 50 nM. In turn, `Cc1nn(C)cc1Nc1nc(C2CC2)c2cc[nH]c2n1` [Compound C-24] yielded an IC50 of under 50 nM. In the case of `Cc1c(Nc2nc(C3CC3)c3cc[nH]c3n2)cnn1C` [Compound C-25], the IC50 was under 50 nM. Consider `Cc1nn(C(C)(C)c2ncn(C)n2)cc1Nc1nc(C2CC2)c2c(C#N)c[nH]c2n1` [Compound C-26], for which the IC50 is under 50 nM.
